Data taken from patent US20230348561A1, “DOMINANT NEGATIVE TGFBETA RECEPTOR POLYPEPTIDES, CD8 POLYPEPTIDES, CELLS, COMPOSITIONS, AND METHODS OF USING THEREOF” (IMMATICS US, INC., priority 2022, published 2023).

B1: dnTGFβRIIvar1: dominant negative TGFβRII variant 1, SEQ ID NO: 305, encoded by SEQ ID NO: 306; lentiviral vector SEQ ID NO: 312 (protein)
chain: MGRGLLRGLWPLHIVLWTRIASTIPPHVQKSDVEMEAQKDEIICPSCNRTAHPLRHINNDMIVTDNNGAVKFPQLCKFCDVRFSTCDNQKSCMSNCSITSICEKPQEVCVAVWRKNDENITLETVCHDPKLPYHDFILEDAASPKCIMKEKKKPGETFFMCSCSSDECNDNIIFSEEYNTSNPDLLLVIFQVTGISLLPPLGVAISVIIIFYCYRVNRQQKLSS
modifications: Dominant Negative TGFbetaRII var1 Amino Acid Sequence
B2: dnTGFβRIIvar2: dominant negative TGFβRII variant 2, SEQ ID NO: 307, encoded by SEQ ID NO: 308; lentiviral vector SEQ ID NO: 313 (protein)
chain: MGRGLLRGLWPLHIVLWTRIASTIPPHVQKSVNNDMIVTDNNGAVKFPQLCKFCDVRFSTCDNQKSCMSNCSITSICEKPQEVCVAVWRKNDENITLETVCHDPKLPYHDFILEDAASPKCIMKEKKKPGETFFMCSCSSDECNDNIIFSEEYNTSNPDLLLVIFQVTGISLLPPLGVAISVIIIFYCYRVNRQQKLSS
modifications: Dominant Negative TGFbetaRII var2 Amino Acid Sequence

What was measured:
effector T cells = assay: CellTrace proliferation assay of effector T cells co-cultured with UACC257; assay type: cell-based, human; conditions: TCR-only effector cells, E:T 5:1; TGF-β1 2-128 ng/mL; GAL 5 μM; 3 days
Procedure: Transduced cells from one donor (prepared as in Example 17) were thawed, washed, and resuspended in TexMACS medium supplemented with 5% by volume human AB serum (“Complete TexMACS”). Benzonase nuclease was added to a concentration of 50 U/mL and the cells were incubated (rested) overnight in tissue culture-treated flasks at 37° C.
UACC257 tumor cells were harvested using 0.05% trypsin, washed, and counted. Red fluorescent protein (RFP)-labeled tumor cells were plated at 5,000 tumor cells per well in 100 μL in triplicate in a 96-well plate in Complete TexMACS. Plates were placed in an incubator at 37° C.
On the day of co-culture, effector T cells were counted, washed, and resuspended in PBS containing a CellTrace Violet proliferation dye at 1:1000 dilution (1 μL dye per mL PBS) and incubated for 20 minutes at 37° C. […]
Labeled effector T cells were then washed, counted, and resuspended in Complete TexMACS and added in 1 mL per well to previously prepared tumor targets for a total of 2 mL per well at an effector:target (E:T) ratio of 5:1. […]
UACC257 tumor cells were harvested using 0.05% trypsin, washed, and counted. […]
On the day of co-culture, cells from two donors prepared and sorted as in Example 19 were counted, washed, and resuspended in PBS containing a CellTrace Violet proliferation dye at 1:1000 dilution (1 μL dye per mL PBS) and incubated for 20 minutes at 37° C. […]

UACC257-RFP tumor cells = assay: Tumor death assays with TGF-β1/galunisertib and serial tumor challenges (IncuCyte); assay type: cell-based; conditions: TCR-only effector cells, E:T 5:1; TGF-β1 8 or 128 ng/mL; GAL 5 μM
Procedure: Cells prepared as in Example 17 were thawed, washed, and resuspended in TexMACS medium supplemented with 5% by volume human AB serum (“Complete TexMACS”). Benzonase nuclease was added to a concentration of 50 U/mL and the cells were incubated (rested) overnight in tissue culture-treated flasks at 37° C.
UACC257 tumor cells were harvested using 0.05% trypsin, washed, and counted. Red fluorescent protein (RFP)-labeled tumor cells (“UACC257-RFP”) were plated at 5,000 to 10,000 per well in a flat-bottomed 96-well plate in 100 μL of Complete TexMACS. Plates were placed in an incubator at 37° C. UACC257 cells express high levels of the antigen PRAME (preferentially expressed antigen in melanoma).
Transduced cells (effector) and tumor cells (target) were co-cultured in 96 well tissue culture plates. Effector/target co-culture plates were placed into an IncuCyte ZOOM imager at 37° C. and 5% CO2 and imaged every 2 hours for the duration of 3 to 12 days. Data was exported from the IncuCyte ZOOM software into Microsoft Excel and GraphPad Prism for further analysis. Fold tumor growth (RFP+ cell count) was normalized to 0 hr timepoint.
TCR-only transduced cells from one donor (prepared as in Example 17) were co-cultured with UACC257 tumor cells, as described in Example 20, at an effector:target (E:T) ratio of 5:1. […]

pSMAD2/3 = assay: Phospho-SMAD intracellular staining assay; assay type: cell-based, human; conditions: 5 ng/mL TGFβ; vs non-transduced cells
Procedure: SMAD is a signal transducer in the TGFβ signaling pathway. SMAD is phosphorylated in response to binding of TGFβ to its receptor and facilitates expression of TGFβ-responsive genes.
Non-transduced cells and cells expressing dnTGFβvar1 or dnTGFβvar2 (prepared as in Example 17) were thawed and washed in TexMACS medium supplemented with 5% by volume human AB serum (“Complete TexMACS”). They were subsequently resuspended in unsupplemented TexMACS to rest under serum starvation overnight at 37° C. After overnight rest, effector cells were counted and the concentration was adjusted as necessary and 100 μL aliquots were added into a flat-bottomed 96-well tissue culture plate. To avoid stimulating SMAD phosphorylation from the manipulation of cells during counting/plating, cells were further rested about 2 hours in serum-free TexMACS at 37° C.
After 2 hours, 50 μL of a 3× solution of TGF-β1 (15 ng/mL) and/or GAL (15 μM) was added to the plated effector cells for final 1× concentrations of 5 ng/mL TGF-β1 and/or 5 μM GAL, respectively. For untreated cells, 50 μL of untreated medium was added. […]
Following permeabilization, cells were washed twice with Flow Buffer (PBS, 1% FBS, 0.1% sodium azide). […] Cytometry data files were analyzed in FlowJo. pSMAD+ percentages were reported as a proportion of all live lymphocytes. […]

Molecule | Division Index / proliferation of effector T cells (effector T cells) | tumor fold growth of UACC257-RFP cells (UACC257-RFP tumor cells) | percentage of all lymphocytes positive for pSMAD (pSMAD2/3)
Cc1cccc(-c2nn3c(c2-c2ccnc4ccc(C(N)=O)cc24)CCC3)n1 [GAL, Galunisertib] | rescued | rescues or enhances ability of effector cells to kill tumor cells | 
TGF-β1: exogenous cytokine added to co-cultures | suppresses proliferation of effector T cells | reduced the anti-tumor cytotoxicity of the effector cells | 
B1 |  |  | reduced phosphorylated SMAD
B2 |  |  | reduced phosphorylated SMAD
